The subject of one assay is IL-6. The assay is described as follows: IL-6 inhibition in LPS-stimulated human peripheral blood mononuclear cells (HTRF). The note with it: Homo sapiens, PBMC; for EC50: 22 h; for inhibition at 10 µM: read-out: percentage in parentheses after EC50 >10. (In general: Time-resolved FRET reads energy transfer from a long-lived donor to a nearby acceptor.)
In assay [1] the test system is Tau phosphorylation at Threonine 212 (pT212Tau). The assay is described as follows: Tau phosphorylation at Threonine 212 (pT212Tau) in Dyrk1a- and MAPT-overexpressing HEK293T cells, sandwich ELISA. It counts as cell-based. The note with it: Homo sapiens, HEK-293T, overnight (16-18 hours), read-out: Thr212 EC50. The procedure: HEK293T cells (transfectable human embryonic kidney cells) were cultured in DMEM medium supplemented with 10% FBS and 1% penicillin/streptomycin.
HEK293T cells were transiently transfected to overexpress Dyrk1a and microtubule-associated protein Tau (MAPT) genes. Specifically, Dyrk1a and MAPT expression vectors were obtained from OriGene (10 μg of each, catalog numbers SC314641 and RC216166, respectively). A MaxiPrep for each vector was ordered and received from GeneWiz, yielding 874.5 μg (resuspended at […]) of the Dyrk1a expression vector, and 898 μg (resuspended at […]) of MAPT.
HEK293T cells were seeded at 1.0×10^7 cells in 10 mL per T-75 flask. […] One T-75 flask was designated as a no-vector negative control for pT212Tau signal.
After 4-6 hours of incubation in transfection reagents, transiently double transfected HEK293T cells were dissociated by treatment with trypsin EDTA and seeded at 1.0×10^5 cells in 100 μL per well in 96-well plates. No-vector negative controls were seeded in separate 96-well plates to avoid the risk of the negative control cells picking up the overexpression during incubation. At the time of seeding, DMSO-resuspended Samumed compounds were dispensed to eight wells as a serial dilution from 10 μM to 4.6 nM final concentration in medium, or at 0.12 μM to 0.05 nM with particularly potent compounds. Cells were exposed to the representative compounds overnight (16-18 hours) in a 37° C. incubator.
96-Well flat-bottom plates were coated with 100 μL per well anti-HT7 capture antibody (ThermoFisher, MN1000) diluted 1:300 in 1×PBS at 4° C. overnight, with shaking at 500 rpm. After overnight capture antibody incubation, coated plates were washed four times with 200 μL per well of 1×PBS-0.05% Tween-20, and blocked for 1 hour with 200 μL per well of 1×PBS with 2% BSA. After 1 hour of blocking, plates were washed four times with 200 μL per well of 1×PBS-0.05% Tween-20, prior to sample loading.
Wells of compound-treated cells were visually checked for cell death before being washed with 200 μL per well of 1×DPBS supplemented with phosphatase inhibitor diluted to 1×. Cells were then lysed with 100 μL 1×RIPA buffer supplemented with phosphatase and protease inhibitors (each diluted to a final 1×). Cells were shaken at 500 rpm, 4° C. for 20 minutes prior to further lysis (via manual scraping) and transfer to 96-well V-bottom collection plates (Corning, 3894). V-bottom plates were centrifuged at 4000 rpm, 4° C., for 15 minutes, and 100 μL of lysate supernatant from each well was directly tested for pT212Tau signal by sandwich ELISA.
Specifically, lysates were directly transferred to the coated and blocked ELISA plates for 2 hours before plates were washed four times with 200 μL per well of 1×PBS-0.05% Tween-20 and probed with 100 μL per well of anti-pT212Tau antibody (ThermoFisher, 44-740G) diluted 1:200 in 1×PBS for 2 hours. Plates were washed four times with 200 μL per well of 1×PBS-0.05% Tween-20 and probed with 100 μL per well of anti-rabbit/HRP conjugate (Cell Signaling Technology, 7074S) diluted 1:600 in 1×PBS for 1 hour. Plates were washed four times with 200 μL per well of 1×PBS-0.05% Tween-20 before 100 μL per well of TMB substrate solution (ThermoFisher, N301) was added. When colour development was observed, 100 μL per well of stop solution (ThermoFisher, N600) was added, and colorimetric detection of pT212Tau signal was read at 450 nm with the Cytation 3 Cell Imaging Multi-Mode Reader (BioTek). The signal was used to plot, draw the curves fitting, and determine the EC50 values in GraphPad Prism for tested representative compounds.
For orientation: An ELISA detects its analyte on a solid surface through an enzyme-linked reagent.

Assay [2] deals with Wnt-responsive Sp5-Luc reporter in SW480 colon carcinoma cells. The assay is described as follows: Screening assay for Wnt activity (Sp5-Luc reporter gene assay). The note with it: Homo sapiens, SW480. Background: In a reporter assay the amount or activity of a reporter protein is the signal.
Assay [3] deals with SW480 colon carcinoma cells. The assay is described as follows: Cell viability assay (CellTiter-Glo). The note with it: Homo sapiens; for EC50: SW480, 96 h; for inhibition at 10 µM: SW480, read-out: percent inhibition at 10 μM.
Assay [4] concerns α-smooth muscle actin (aSMA) positive LL29 cells. The assay is described as follows: Inhibition of the fibrotic process: αSMA staining in TGF-β1 treated LL29 fibroblasts from IPF patients. The note with it: Homo sapiens, Fibroblast; for EC50: 96 h; for inhibition at 10 µM: read-out: percentage in parentheses after EC50 >10.
The subject of assay [5] is Tau phosphorylation at Ser396 (pSer396). As to the kind of experiment: Tau phosphorylation at Ser396 (pSer396) in SH-SY5Y cells, ELISA / western blot.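 Further: decrease in pSer396 Tau measured in lysates of treated cells by colorimetric ELISA or chemiluminescent western blot, same pSer396 antibody for both.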 It counts as cell-based, human. The note with it: Homo sapiens; SH-SY5Y cells, overnight (16-18 h); read-out: pSer396 Tau EC50.
Protocol: Two days before treatment, cells were seeded onto 96 well plates at 5×10^4 cells/well.
The above synthesized compounds were screened using the cell assay procedure to assess decrease Tau phosphorylation at Ser396 (pSer396) described below.
Cells were lysed with RIPA buffer complemented with phosphatase and protease inhibitors then lysates were spun down at 12,000 g for 10 min to remove any cellular debris.
Another assay deals with GSK3β kinase (Homo sapiens, UniProt P49841). The assay is described as follows: GSK3β kinase activity (Ser/Thr 09 peptide Z-lyte FRET assay). The note with it: recombinant kinase, 46 μM ATP, one hour at room temperature; read-out: EC50. The format is biochemical.
GSK3β kinase, sequence (P49841 whole entry): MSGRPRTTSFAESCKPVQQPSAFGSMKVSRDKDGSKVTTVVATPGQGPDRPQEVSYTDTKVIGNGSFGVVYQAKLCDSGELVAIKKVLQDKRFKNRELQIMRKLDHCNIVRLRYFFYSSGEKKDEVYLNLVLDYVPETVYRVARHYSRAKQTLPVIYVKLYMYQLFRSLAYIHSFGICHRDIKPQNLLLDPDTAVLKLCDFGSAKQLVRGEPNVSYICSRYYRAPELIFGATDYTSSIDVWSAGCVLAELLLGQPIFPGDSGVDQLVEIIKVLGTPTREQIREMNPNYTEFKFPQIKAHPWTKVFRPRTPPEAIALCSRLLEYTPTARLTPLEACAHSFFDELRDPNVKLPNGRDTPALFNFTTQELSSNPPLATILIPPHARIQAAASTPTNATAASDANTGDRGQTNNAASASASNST
Assay [6] deals with secreted cytokines TNFα, IL-6 and KC-GRO. The assay is described as follows: Secreted cytokines in Lipopolysaccharide-stimulated BV-2 cells (Table 9 does not say which cytokine). The format is cell-based, mouse. The note with it: Mus musculus, BV-2, 5 h; read-out: EC50.
The next assay concerns the target DYRK1A kinase (Homo sapiens, UniProt Q13627). As to the kind of experiment: DYRK1A kinase activity (Ser/Thr 18 peptide Z-lyte FRET assay).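 Further: kinase activity read as coumarin/fluorescein emission ratio after development step, with unphosphorylated and phosphorylated peptide forms setting 0% and 100% controls, values from dose-response curves.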 The note with it: recombinant DYRK1A, 30 μM ATP, one hour at room temperature. The format is biochemical.

This note sets out measurements from US10703748B2, “Diazanaphthalen-3-yl carboxamides and preparation and use thereof” (Samumed, LLC, priority 2017, dated 2020).

The term EC50 denotes the concentration at which the effect is half-maximal.

Turning to `Cn1cc(-c2cc3cc(NC(=O)C4CCNCC4)ncc3cn2)cn1` [Compound 3638, N-(6-(1-Methyl-1H-pyrazol-4-yl)-2,7-naphthyridin-3-yl)piperidine-4-carboxamide], the EC50 in the assay with IL-6 was greater than 10000 nM; in [1], 112 nM; in [2] it was 593 nM; in assay [3] it was 6920 nM; in assay [4], greater than 10000 nM; in assay [5], 1500 nM. Moreover, the results for the EC50 (at GSK3β kinase; in assay [6]; on DYRK1A kinase) were 27 nM, 1400 nM and 6 nM, respectively. In addition, the inhibition at 10 µM in the assay on IL-6 amounted to 6.3%; in assay [4], 34.9%.

Consider `CC(C)CN1CCC(C(=O)Nc2cc3cc(-c4cnn(C)c4)ncc3cn2)CC1` [Compound 3643, 1-Isobutyl-N-(6-(1-methyl-1H-pyrazol-4-yl)-2,7-naphthyridin-3-yl) piperidine-4-carboxamide], for which the EC50 was greater than 10000 nM with IL-6; 30 nM in [1]; 73 nM in assay [2]; 6990 nM in assay [3]; 2500 nM in assay [4]; 102 nM in [5]. The results for the EC50 (on GSK3β kinase; in assay [6]; on DYRK1A kinase) were 31 nM, 3900 nM and 10 nM, respectively. Moreover, the inhibition at 10 µM with IL-6 is 9.8%.

On to `Cn1cc(-c2cc3cc(NC(=O)C4CCN(Cc5ncccn5)CC4)ncc3cn2)cn1` [Compound 3727, N-(6-(1-Methyl-1H-pyrazol-4-yl)-2,7-naphthyridin-3-yl)-1-(pyrimidin-2-ylmethyl)piperidine-4-carboxamide], for which the EC50 in the assay with IL-6 is greater than 10000 nM; in [1] it was 15 nM; in assay [2] it was 426 nM; in assay [3], 6660 nM; in assay [4], 149 nM; in [5] it was 398 nM. For the same compound, the results for the EC50 (at GSK3β kinase; in assay [6]; on DYRK1A kinase) were 18 nM, greater than 10000 nM and 4 nM, respectively. In addition, the inhibition at 10 µM in the assay on IL-6 was 6.2%.

With `Cn1cc(-c2cc3cc(NC(=O)c4ccnc(N5CCNCC5)c4)ncc3cn2)cn1` [Compound 3773, N-(6-(1-Methyl-1H-pyrazol-4-yl)-2,7-naphthyridin-3-yl)-2-(piperazin-1-yl) isonicotinamide], the EC50 in the assay on IL-6 is greater than 10000 nM; in assay [1], 268 nM; in assay [2], 2820 nM; in assay [3], 5640 nM; in [4] it was 3320 nM; in [5] it was greater than 10000 nM. Also, the EC50 is 852 nM on GSK3β kinase, 305 nM in assay [6] and 16 nM on DYRK1A kinase. In addition, the inhibition at 10 µM with IL-6 was 1.1%.

Take `O=C(Nc1cc2cc(-c3cncs3)ncc2cn1)C1CCN(C2COC2)CC1` [Compound 4244, 1-(Oxetan-3-yl)-N-(6-(thiazol-5-yl)-2,7-naphthyridin-3-yl)piperidine-4-carboxamide]: the EC50 in the assay on IL-6 is greater than 10000 nM; in [1] it was 157 nM; in assay [2], 863 nM; in assay [3] it was greater than 10000 nM; in assay [4], greater than 10000 nM; in [5], 284 nM. The EC50 is 30 nM on GSK3β kinase, greater than 10000 nM in [6] and 4 nM at DYRK1A kinase. The results for the inhibition at 10 µM (in the assay on IL-6; in [3]; in assay [4]) were 6.9%, 19.9% and 4.9%, respectively.

As to `Cc1ncc(-c2ccc3cnc(NC(=O)C4CCN(C(=O)CN5CCCC5)CC4)cc3n2)s1` [Compound 4561, N-(2-(2-Methylthiazol-5-yl)-1,6-naphthyridin-7-yl)-1-(2-(pyrrolidin-1-yl)acetyl)piperidine-4-carboxamide], the 50% effective concentration (EC50) was 4560 nM in the assay on IL-6; 306 nM in assay [1]; 953 nM in assay [2]; greater than 10000 nM in assay [3]; 664 nM in [4]; 2100 nM in [5]. For the same compound, the concentration for a half-maximal effect (EC50) on GSK3β kinase was 182 nM; in [6] it was 129 nM; at DYRK1A kinase, 7 nM. Besides, the inhibition at 10 µM in [3] came out at 49.5%.
